Test results published in patent US7981907B2 (dated 2011).

melting point | SMILES
34 to 43 °C | Cc1noc(C)c1-c1cccc(C[S+]([O-])CC(N)=O)c1 (stereo not drawn)
153 °C | Cc1ccc(C[S+]([O-])CC(N)=O)cc1-c1ccccc1 (stereo not drawn)
155 to 160 °C | CC(=O)c1ccc(-c2ccccc2C[S+]([O-])CC(N)=O)cc1 (stereo not drawn)
